Tested on: jumping spider rhodopsin-1 WT
Assay: GsX GloSensor assay with Gsα/q11
Type: cell-based
Settings: 16.7 μM AA92593, COS-1 cells
Excerpt: We next tested the effect of AA92593 on jumping spider rhodopsin-1, a Gq-coupled visual opsin but not melanopsin (see Figs. 2, S2, and S3) ([41]). Similar to non-mammalian-type and invertebrate melanopsins, jumping spider rhodopsin-1 was not sensitive to AA92593 as assessed using the GsX GloSensor assay (Fig. 7L). […] The introduction of I189^ECL2W/Y207^5.42F impaired the light-dependent cAMP responses even in the absence of AA92593 (Fig. S11). Taken together, the non-melanopsin Gq-coupled opsin cannot be functionally converted to an AA92593-sensitive type by site-directed mutagenesis, in contrast to non-mammalian-type and invertebrate melanopsins. […]
For GloSensor assay, opsins, GloSensor assay sensor (coded by pGlo-22F), and NanoBiT-tagged G proteins were transiently expressed in COS-1 cells (kindly provided from Dr David Farrens, Oregon Health and Science University) using PEI as described previously ([24], [52]). […] For GFP-fluorescence microscopy, a 35-mm cell culture dish (IWAKI) was transfected with 2 μg melanopsin-GFP plasmid and 8 μg PEI in 400 μl Opti-mem and 1.2 ml D-MEM. […]

Structure (SMILES): COc1ccc(S(=O)(=O)N2CCCCC2)cc1C [AA92593]
- sensitivity to AA92593: not sensitive

Reference: article PMC12051620, “Molecular basis underlying the specificity of an antagonist AA92593 for mammalian melanopsins” (The Journal of Biological Chemistry, 2025)
